Experimental data taken from PubChem BioAssay AID220 (DTP/NCI, 2004).
Where “and” joins values, the source holds several entries; their conditions need not be identical. Equal entries are not always repeated. Inconclusive results are not listed.

System: CD8F1 mice, subcutaneous mammary adenocarcinoma, T/C%
Assay: NCI In Vivo Anticancer Drug Screen. Data for tumor model Mammary Adenocarcinoma CD8F1 (subcutaneous) in CD8F1
Conditions: higher = larger tumour
Method in brief: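 Tumor-bearing mice, transplantable model; readout survival or tumor size; value = treated (T) / vehicle control (C).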

[1] = endpoint: median tumor weight (est.), dose: 25.0 mg/kg/injection, schedule: Q07DX005 (ip), vehicle: saline with Tween-80
[2] = endpoint: median tumor weight (est.), dose: 200.0 mg/kg/injection, schedule: Q07DX005 (ip), vehicle: saline with Tween-80
[3] = endpoint: median tumor weight (est.), dose: 400.0 mg/kg/injection, schedule: Q07DX005 (ip), vehicle: saline with Tween-80

OCC1OC(n2cnc3c2nnn2ccnc32)C(O)C1O (stereo not drawn)
T/C (endpoint: mean tumor weight, dose: 37.5 mg/kg/injection, schedule: Q07DX005 (ip), vehicle: saline): 93 % of control and 94 % of control | T/C (endpoint: mean tumor weight, dose: 75.0 mg/kg/injection, schedule: Q07DX005 (ip), vehicle: saline): 202 % of control and 91 % of control | T/C (endpoint: mean tumor weight, dose: 150.0 mg/kg/injection, schedule: Q07DX005 (ip), vehicle: saline): 103 % of control and 118 % of control

CC[N+](CC)(CC)CC
T/C (endpoint: median tumor weight (est.), dose: 0.78 mg/kg/injection, schedule: Q07DX005 (ip), vehicle: saline with Tween-80): 96 % of control | T/C (endpoint: median tumor weight (est.), dose: 1.56 mg/kg/injection, schedule: Q07DX005 (ip), vehicle: saline with Tween-80): 71 % of control and 84 % of control | T/C (endpoint: median tumor weight (est.), dose: 3.12 mg/kg/injection, schedule: Q07DX005 (ip), vehicle: saline with Tween-80): 21 % of control and 38 % of control | T/C (endpoint: median tumor weight (est.), dose: 6.25 mg/kg/injection, schedule: Q07DX005 (ip), vehicle: saline with Tween-80): 10 % of control and 27 % of control | T/C (endpoint: median tumor weight change, dose: 5.0 mg/kg/injection, schedule: Q01DX001 (ip), vehicle: saline with Tween-80): 38 % of control | T/C (endpoint: median tumor weight change, dose: 10.0 mg/kg/injection, schedule: Q01DX001 (ip), vehicle: saline with Tween-80): 20 % of control | T/C (endpoint: median tumor weight change, dose: 12.0 mg/kg/injection, schedule: Q01DX001 (ip), vehicle: saline with Tween-80): 54 % of control and 61 % of control | T/C (endpoint: median tumor weight change, dose: 15.0 mg/kg/injection, schedule: Q01DX001 (ip), vehicle: saline with Tween-80): 86 % of control | T/C (endpoint: median tumor weight change, dose: 20.0 mg/kg/injection, schedule: Q01DX001 (ip), vehicle: saline with Tween-80): 22 % of control | T/C (endpoint: median tumor weight change, dose: 30.0 mg/kg/injection, schedule: Q01DX001 (ip), vehicle: saline with Tween-80): 15 % of control | T/C (endpoint: median tumor weight change, dose: 40.0 mg/kg/injection, schedule: Q01DX001 (ip), vehicle: saline with Tween-80): 8 % of control

CCC(=O)N(C)[C@@H](C)C(=O)O[C@H]1CC(=O)N(C)c2cc(cc(OC)c2Cl)C/C(C)=C/C=C[C@@H](OC)[C@@]2(O)C[C@H](OC(=O)N2)[C@@H](C)[C@@H]2O[C@@]12C
T/C (endpoint: median tumor weight (est.), dose: 7.5 micrograms/kg/injection, schedule: Q07DX005 (ip), vehicle: saline + alcohol): 210 % of control | T/C (endpoint: median tumor weight (est.), dose: 15.0 micrograms/kg/injection, schedule: Q07DX005 (ip), vehicle: saline + alcohol): 112 % of control | T/C (endpoint: median tumor weight (est.), dose: 30.0 micrograms/kg/injection, schedule: Q07DX005 (ip), vehicle: saline + alcohol): 84 % of control | T/C (endpoint: median tumor weight (est.), dose: 60.0 micrograms/kg/injection, schedule: Q07DX005 (ip), vehicle: saline + alcohol): 98 % of control

Cc1c2c(ccc3ccccc32)c[n+]2ccccc12
T/C (endpoint: median tumor weight (est.), dose: 6.25 mg/kg/injection, schedule: Q07DX005 (ip), vehicle: saline): 73 % of control | T/C (endpoint: median tumor weight (est.), dose: 12.5 mg/kg/injection, schedule: Q07DX005 (ip), vehicle: saline): 71 % of control

NC(=O)c1cn(C2OC(CO)C(O)C2O)c2ncnc(N)c12 (stereo not drawn)
T/C (endpoint: median tumor weight (est.), dose: 1.0 mg/kg/injection, schedule: Q07DX005 (ip), vehicle: suspension in saline): 63 % of control | T/C (endpoint: median tumor weight (est.), dose: 2.0 mg/kg/injection, schedule: Q07DX005 (ip), vehicle: suspension in saline): 27 % of control and 45 % of control | T/C (endpoint: median tumor weight change, dose: 0.25 mg/kg/injection, schedule: Q01DX001 (ip), vehicle: saline): 121 % of control | T/C (endpoint: median tumor weight change, dose: 0.5 mg/kg/injection, schedule: Q01DX001 (ip), vehicle: saline): 91 % of control | T/C (endpoint: median tumor weight change, dose: 1.0 mg/kg/injection, schedule: Q01DX001 (ip), vehicle: saline): 81 % of control | T/C (endpoint: median tumor weight change, dose: 1.25 mg/kg/injection, schedule: Q01DX001 (ip), vehicle: suspension in saline): 88 % of control | T/C (endpoint: median tumor weight change, dose: 2.0 mg/kg/injection, schedule: Q01DX001 (ip), vehicle: saline): 107 % of control | T/C (endpoint: median tumor weight change, dose: 2.5 mg/kg/injection, schedule: Q01DX001 (ip), vehicle: suspension in saline): 102 % of control | T/C (endpoint: median tumor weight change, dose: 4.0 mg/kg/injection, schedule: Q01DX001 (ip), vehicle: saline): 95 % of control | T/C (endpoint: median tumor weight change, dose: 5.0 mg/kg/injection, schedule: Q01DX001 (ip), vehicle: suspension in saline): 70 % of control | T/C (endpoint: median tumor weight change, dose: 8.0 mg/kg/injection, schedule: Q01DX001 (ip), vehicle: saline): 79 % of control

COc1cccc2c1C(=O)c1c(O)c3c(c(O)c1C2=O)C[C@@](O)(C(C)=O)C[C@@H]3OC1CC(N)C(O)C(C)O1 (stereo partly drawn)
T/C (endpoint: median tumor weight (est.), dose: 0.5 mg/kg/injection, schedule: Q07DX005 (ip), vehicle: water): 41 % of control | T/C (endpoint: median tumor weight (est.), dose: 1.0 mg/kg/injection, schedule: Q07DX005 (ip), vehicle: water): 43 % of control | T/C (endpoint: median tumor weight (est.), dose: 1.2 mg/kg/injection, schedule: Q07DX005 (ip), vehicle: saline): 91 % of control | T/C (endpoint: median tumor weight (est.), dose: 1.78 mg/kg/injection, schedule: Q07DX005 (ip), vehicle: water): 43 % of control | T/C (endpoint: median tumor weight (est.), dose: 1.8 mg/kg/injection, schedule: Q07DX005 (ip), vehicle: saline): 72 % of control | T/C (endpoint: median tumor weight (est.), dose: 2.0 mg/kg/injection, schedule: Q07DX005 (ip), vehicle: water): 38 % of control | T/C (endpoint: median tumor weight (est.), dose: 2.67 mg/kg/injection, schedule: Q07DX005 (ip), vehicle: water): 20 % of control | T/C (endpoint: median tumor weight (est.), dose: 2.7 mg/kg/injection, schedule: Q07DX005 (ip), vehicle: saline): 61 % of control

NC(N)=NOCC[C@@H](N)C(=O)O
T/C (endpoint: median tumor weight change, dose: 250.0 mg/kg/injection, schedule: Q01DX001 (ip), vehicle: saline): 83 % of control | T/C (endpoint: median tumor weight change, dose: 500.0 mg/kg/injection, schedule: Q01DX001 (ip), vehicle: saline): 72 % of control | T/C (endpoint: median tumor weight change, dose: 1000.0 mg/kg/injection, schedule: Q01DX001 (ip), vehicle: saline): 75 % of control

CCOC(=O)C(C)(C)Oc1ccc(Cl)cc1
T/C (endpoint: median tumor weight (est.), dose: 12.5 mg/kg/injection, schedule: Q07DX005 (ip), vehicle: saline with Tween-80): 61 % of control | T/C [1]: 113 % of control | T/C (endpoint: median tumor weight (est.), dose: 50.0 mg/kg/injection, schedule: Q07DX005 (ip), vehicle: saline with Tween-80): 84 % of control | T/C (endpoint: median tumor weight (est.), dose: 100.0 mg/kg/injection, schedule: Q07DX005 (ip), vehicle: saline with Tween-80): 72 % of control | T/C [2]: 77 % of control | T/C [3]: 64 % of control

COc1cc2c(c(OC)c1OC)-c1c(cc3c(c1OC)OCO3)CC(C)C(C)(O)C2OC(=O)c1ccccc1 (stereo not drawn)
T/C (endpoint: median tumor weight change, dose: 31.0 mg/kg/injection, schedule: Q01DX001 (ip), vehicle: saline + Tween-80 + alcohol): 93 % of control | T/C (endpoint: median tumor weight change, dose: 125.0 mg/kg/injection, schedule: Q01DX001 (ip), vehicle: saline + Tween-80 + alcohol): 121 % of control | T/C (endpoint: median tumor weight change, dose: 250.0 mg/kg/injection, schedule: Q01DX001 (ip), vehicle: saline + Tween-80 + alcohol): 95 % of control | T/C (endpoint: median tumor weight change, dose: 500.0 mg/kg/injection, schedule: Q01DX001 (ip), vehicle: saline + Tween-80 + alcohol): 110 % of control | T/C (endpoint: median tumor weight change, dose: 900.0 mg/kg/injection, schedule: Q01DX001 (ip), vehicle: saline + alcohol): 96 % of control | T/C (endpoint: median tumor weight change, dose: 1800.0 mg/kg/injection, schedule: Q01DX001 (ip), vehicle: saline + alcohol): 124 % of control | T/C (endpoint: median tumor weight change, dose: 3600.0 mg/kg/injection, schedule: Q01DX001 (ip), vehicle: saline + alcohol): 59 % of control

C=C1N(C)c2ccccc2C1(C)C
T/C (endpoint: median tumor weight change, dose: 125.0 mg/kg/injection, schedule: Q01DX001 (ip), vehicle: saline with Tween-80): 115 % of control

NC(=O)c1ncn2c(=O)n(CCCl)nnc12
T/C (endpoint: median tumor weight change, dose: 6.25 mg/kg/injection, schedule: Q01DX001 (ip), vehicle: suspension in saline): 69 % of control | T/C (endpoint: median tumor weight change, dose: 12.5 mg/kg/injection, schedule: Q01DX001 (ip), vehicle: suspension in saline): 76 % of control | T/C (endpoint: median tumor weight change, dose: 25.0 mg/kg/injection, schedule: Q01DX001 (ip), vehicle: suspension in saline): 45 % of control | T/C (endpoint: median tumor weight change, dose: 50.0 mg/kg/injection, schedule: Q01DX001 (ip), vehicle: suspension in saline): 41 % of control and 46 % of control

C[Si](C)(C)OSc1ccccc1[N+](=O)[O-]
T/C (endpoint: median tumor weight change, dose: 125.0 mg/kg/injection, schedule: Q01DX001 (ip), vehicle: Klucel (hydroxypropylcellulose) (HPC)): 158 % of control | T/C (endpoint: median tumor weight change, dose: 250.0 mg/kg/injection, schedule: Q01DX001 (ip), vehicle: Klucel (hydroxypropylcellulose) (HPC)): 120 % of control | T/C (endpoint: median tumor weight change, dose: 500.0 mg/kg/injection, schedule: Q01DX001 (ip), vehicle: Klucel (hydroxypropylcellulose) (HPC)): 93 % of control | T/C (endpoint: median tumor weight change, dose: 1000.0 mg/kg/injection, schedule: Q01DX001 (ip), vehicle: Klucel (hydroxypropylcellulose) (HPC)): 120 % of control | T/C (endpoint: median tumor weight change, dose: 2000.0 mg/kg/injection, schedule: Q01DX001 (ip), vehicle: Klucel (hydroxypropylcellulose) (HPC)): 97 % of control

Nc1nc(N)c2cc(CNc3ccc(C(=O)NC(CC(=O)O)CC(=O)O)cc3)ccc2n1
T/C (endpoint: median tumor weight (est.), dose: 12.5 mg/kg/injection, schedule: Q07DX005 (ip), vehicle: Klucel (hydroxypropylcellulose) (HPC)): 86 % of control | T/C (endpoint: median tumor weight (est.), dose: 25.0 mg/kg/injection, schedule: Q07DX005 (ip), vehicle: Klucel (hydroxypropylcellulose) (HPC)): 92 % of control | T/C (endpoint: median tumor weight (est.), dose: 50.0 mg/kg/injection, schedule: Q07DX005 (ip), vehicle: Klucel (hydroxypropylcellulose) (HPC)): 81 % of control | T/C (endpoint: median tumor weight (est.), dose: 100.0 mg/kg/injection, schedule: Q07DX005 (ip), vehicle: Klucel (hydroxypropylcellulose) (HPC)): 54 % of control

CCC(CC)COC(=O)c1ccccc1C(=O)OCC(CC)CC
T/C [1]: 83 % of control | T/C [2]: 65 % of control | T/C [3]: 75 % of control | T/C (endpoint: median tumor weight (est.), dose: 800.0 mg/kg/injection, schedule: Q07DX005 (ip), vehicle: saline with Tween-80): 64 % of control
